Measured values reported in the CheMixHub viscosity set.

Test: xn = mol fraction of the nth substance listed

ClC(Cl)(Cl)Cl + CO
Conditions | viscosity [mPa·s]
298 K, 101.3 kPa, x1 = 0.1518 | 0.719
298 K, 101.3 kPa, x1 = 0.2927 | 0.809
298 K, 101.3 kPa, x1 = 0.4346 | 0.844
298 K, 101.3 kPa, x1 = 0.5445 | 0.874
298 K, 101.3 kPa, x1 = 0.6871 | 0.875
298 K, 101.3 kPa, x1 = 0.761 | 0.858
298 K, 101.3 kPa, x1 = 0.8784 | 0.867
298.15 K, 101 kPa, x2 = 0.0367 | 0.877
298.15 K, 101 kPa, x2 = 0.0708 | 0.871
298.15 K, 101 kPa, x2 = 0.0886 | 0.869
298.15 K, 101 kPa, x2 = 0.1063 | 0.865
298.15 K, 101 kPa, x2 = 0.2 | 0.858
298.15 K, 101 kPa, x2 = 0.2104 | 0.8395
298.15 K, 101 kPa, x2 = 0.2547 | 0.857
298.15 K, 101 kPa, x2 = 0.35 | 0.854
298.15 K, 101 kPa, x2 = 0.375 | 0.8288
298.15 K, 101 kPa, x2 = 0.4226 | 0.842
298.15 K, 101 kPa, x2 = 0.46 | 0.846
298.15 K, 101 kPa, x2 = 0.4787 | 0.839
298.15 K, 101 kPa, x2 = 0.5069 | 0.8105
298.15 K, 101 kPa, x2 = 0.55 | 0.831
298.15 K, 101 kPa, x2 = 0.5618 | 0.815
298.15 K, 101 kPa, x2 = 0.6107 | 0.807
298.15 K, 101 kPa, x2 = 0.6154 | 0.7666
298.15 K, 101 kPa, x2 = 0.6934 | 0.77
298.15 K, 101 kPa, x2 = 0.7057 | 0.7387
298.15 K, 101 kPa, x2 = 0.76 | 0.764
298.15 K, 101 kPa, x2 = 0.7826 | 0.7057
298.15 K, 101 kPa, x2 = 0.7853 | 0.719
298.15 K, 101 kPa, x2 = 0.83 | 0.702
298.15 K, 101 kPa, x2 = 0.8483 | 0.6886
298.15 K, 101 kPa, x2 = 0.88 | 0.665
298.15 K, 101 kPa, x2 = 0.9029 | 0.626
298.15 K, 101 kPa, x2 = 0.9057 | 0.6477
298.15 K, 101 kPa, x2 = 0.9065 | 0.6438
298.15 K, 101 kPa, x2 = 0.95 | 0.599
298.15 K, 101 kPa, x2 = 0.9555 | 0.5806
298.15 K, 101 kPa, x2 = 0.9571 | 0.5875
298.15 K, 101 kPa, x2 = 0.9616 | 0.577
298.15 K, 101 kPa, x2 = 0.9788 | 0.5672
303.15 K, 101 kPa, x1 = 0.0355 | 0.54
303.15 K, 101 kPa, x1 = 0.1574 | 0.594
303.15 K, 101 kPa, x1 = 0.2723 | 0.665
303.15 K, 101 kPa, x1 = 0.4653 | 0.71
303.15 K, 101 kPa, x1 = 0.6066 | 0.76
303.15 K, 101 kPa, x1 = 0.7506 | 0.766
303.15 K, 101 kPa, x1 = 0.901 | 0.78
303.15 K, 101 kPa, x2 = 0.0396 | 0.8187
303.15 K, 101 kPa, x2 = 0.0862 | 0.8054
303.15 K, 101 kPa, x2 = 0.1437 | 0.7973
303.15 K, 101 kPa, x2 = 0.2352 | 0.793
303.15 K, 101 kPa, x2 = 0.3077 | 0.7919
303.15 K, 101 kPa, x2 = 0.4129 | 0.7852
303.15 K, 101 kPa, x2 = 0.531 | 0.7677
303.15 K, 101 kPa, x2 = 0.6187 | 0.7443
303.15 K, 101 kPa, x2 = 0.6838 | 0.7184
303.15 K, 101 kPa, x2 = 0.824 | 0.6435
303.15 K, 101 kPa, x2 = 0.8821 | 0.6038
303.15 K, 101 kPa, x2 = 0.9292 | 0.5669
303.15 K, 101 kPa, x2 = 0.9728 | 0.5306
308.15 K, 101 kPa, x2 = 0.0367 | 0.764
308.15 K, 101 kPa, x2 = 0.0708 | 0.756
308.15 K, 101 kPa, x2 = 0.0886 | 0.755
308.15 K, 101 kPa, x2 = 0.1063 | 0.749
308.15 K, 101 kPa, x2 = 0.2547 | 0.738
308.15 K, 101 kPa, x2 = 0.4226 | 0.724
308.15 K, 101 kPa, x2 = 0.4787 | 0.72
308.15 K, 101 kPa, x2 = 0.5618 | 0.7
308.15 K, 101 kPa, x2 = 0.6107 | 0.691
308.15 K, 101 kPa, x2 = 0.6934 | 0.656
308.15 K, 101 kPa, x2 = 0.7853 | 0.619
308.15 K, 101 kPa, x2 = 0.9029 | 0.543
308.15 K, 101 kPa, x2 = 0.9616 | 0.502
313.15 K, 101 kPa, x1 = 0.0355 | 0.54
313.15 K, 101 kPa, x1 = 0.1574 | 0.594
313.15 K, 101 kPa, x1 = 0.2723 | 0.665
313.15 K, 101 kPa, x1 = 0.4653 | 0.71
313.15 K, 101 kPa, x1 = 0.6066 | 0.76
313.15 K, 101 kPa, x1 = 0.7506 | 0.766
313.15 K, 101 kPa, x1 = 0.901 | 0.78
313.15 K, 101.33 kPa, x2 = 0.105 | 0.7595
313.15 K, 101.33 kPa, x2 = 0.193 | 0.7624
313.15 K, 101.33 kPa, x2 = 0.303 | 0.75
313.15 K, 101.33 kPa, x2 = 0.35 | 0.7427
313.15 K, 101.33 kPa, x2 = 0.51 | 0.6955
313.15 K, 101.33 kPa, x2 = 0.68 | 0.6248
313.15 K, 101.33 kPa, x2 = 0.72 | 0.605
313.15 K, 101.33 kPa, x2 = 0.79 | 0.57
313.15 K, 101.33 kPa, x2 = 0.91 | 0.505
318 K, 101.3 kPa, x1 = 0.1527 | 0.5328
318 K, 101.3 kPa, x1 = 0.2949 | 0.6044
318 K, 101.3 kPa, x1 = 0.4375 | 0.6446
318 K, 101.3 kPa, x1 = 0.5566 | 0.6729
318 K, 101.3 kPa, x1 = 0.7077 | 0.69
318 K, 101.3 kPa, x1 = 0.8931 | 0.7164
318.15 K, 101 kPa, x2 = 0.0367 | 0.672
318.15 K, 101 kPa, x2 = 0.0708 | 0.664
318.15 K, 101 kPa, x2 = 0.0886 | 0.67
318.15 K, 101 kPa, x2 = 0.1063 | 0.657
318.15 K, 101 kPa, x2 = 0.2547 | 0.643
318.15 K, 101 kPa, x2 = 0.4226 | 0.63
318.15 K, 101 kPa, x2 = 0.4787 | 0.623
318.15 K, 101 kPa, x2 = 0.5618 | 0.607
318.15 K, 101 kPa, x2 = 0.6107 | 0.598
318.15 K, 101 kPa, x2 = 0.6934 | 0.57
318.15 K, 101 kPa, x2 = 0.7853 | 0.537
318.15 K, 101 kPa, x2 = 0.9029 | 0.476
318.15 K, 101 kPa, x2 = 0.9616 | 0.44
323.15 K, 101 kPa, x1 = 0.0355 | 0.51
323.15 K, 101 kPa, x1 = 0.1574 | 0.543
323.15 K, 101 kPa, x1 = 0.2723 | 0.612
323.15 K, 101 kPa, x1 = 0.4653 | 0.642
323.15 K, 101 kPa, x1 = 0.6066 | 0.682
323.15 K, 101 kPa, x1 = 0.7506 | 0.698
323.15 K, 101 kPa, x1 = 0.901 | 0.706
